Reference: paper PMC12140054, “Small glycomimetic antagonists of the cytomegalovirus glycoprotein UL141 prevent binding to TRAIL death receptor” (The Journal of Biological Chemistry, 2025)
Where two headings read alike, the source gives them in different places.

What was measured:
[1] = molecular target: TRAIL-R2-Fc (Homo sapiens) (UniProt O14763); test: SPR; conditions: cited from earlier work
[2] = test system: human foreskin fibroblasts HFF-BJ (ATCC CRL-2522 cells); test: MTT cytotoxicity / cell viability assay; format: cell-based; conditions: 0.1 to 50 μM, 72 h
Description: Cell viability as visualized by fold change of formazan-positive cells normalized to the untreated control and DMSO. Viability reduced below 40% represents the cytotoxic zone, below the dotted line in each plot. The number of biological replicates is indicated.
Human foreskin fibroblasts (HFF), a type of primary fibroblast derived from neonatal foreskin tissue, were chosen for this bioassay due to their distinct advantages in studies involving HCMV. For instance, the HHF cells provide a relevant and effective platform due to their unique susceptibility to HCMV infection, ability to mimic human immune responses, and relevance to clinical scenarios. […] HFF cells were incubated with each compound at concentrations ranging from 0.1 to 50 μM and any possible cytotoxic effect was monitored for 72 h. Tested compounds were dissolved in dimethyl sulfoxide (DMSO). […] The cytotoxic effect (CTE) is represented here as the concentration that causes a reduction of more than 40% in the number of viable cells.
Cells were seeded in a 96-well plate at a density of 1 × 10^4 cells per well for the measurement of cytotoxicity of the compounds (without UVA irradiation). […] Cells after treatment were incubated for […]. Untreated cells were considered negative control, and DMSO-treated cells (at appropriate concentration) were considered vehicle control. The classical MTT assay (3-(4,5-dimethyl thiazolyl-2)-2,5-diphenyltetrazolium bromide) ([68]) was used to measure cellular metabolic activity as an indicator of cell viability, proliferation, and cytotoxicity. Briefly, 0.5 mg/ml MTT solution was dispensed in each well of the 96-well plate and incubated for 4 h. Afterward, the MTT solution was removed and 200 μl of 100% DMSO was added to each well and the plate was placed on a microplate shaker for 5 min to dissolve the formazan granules. The absorbance was measured at 550 nm using a spectrophotometer. DMSO and MTT were purchased from Thermo Fisher Scientific. The darker the solution, the greater the number of viable, metabolically active cells. All experimental compounds were measured using at least 2 to 3 replicates for each and the averaged values from three independent experiments (n = 3) are presented. Cell viability was visualized by fold change of formazan-positive cells normalized to the untreated control and DMSO. Viability reduced below 40% represents the cytotoxic zone. All evaluations were performed using GraphPad Prism 9.5.0 (GraphPad Software, LLC), if other software was not explicitly mentioned.

HCMV UL141 [3] = molecular target: T1, HCMV UL141 (Human cytomegalovirus, UniProt Q6RJQ3); test: biochemical; format: binding; conditions: for Rmax / koff / kon: UL141 immobilized, substance as analyte
T1 construct: we expressed and purified the full-length recombinant UL141 (amino acids 30–300); made in house
Description: (§1) To prepare HCMV UL141 for binding studies, biotinylation was performed using the BiotinTag Micro Biotinylation Kit (Sigma-Aldrich). Purified UL141 protein (50 μg in 50 μl) was mixed with 50 μl of BiotinTag reaction buffer provided in the kit. Sulfo-NHS-Biotin reagent was freshly prepared by dissolving the vial contents in 1 ml of sterile water. A calculated volume of the biotin reagent was added to achieve a 20:1 M excess of biotin to protein. The reaction mixture was incubated for 30 min at room temperature with gentle mixing to ensure efficient labeling. Following incubation, unreacted biotin was removed using the desalting column included in the kit. The biotinylated UL141 protein was eluted in 50 mM Hepes, pH 7.5, 150 mM NaCl. Biotin incorporation was verified using a colorimetric biotin quantification assay (e.g., HABA assay). The biotinylated protein was then quantified spectrophotometrically using a NanoDrop instrument and concentrated to the desired level for Biacore or ELISA binding studies. The biotinylated protein was stored at 4 °C for short-term use or −80 °C for long-term storage to maintain stability.
(§2) The sensor surface of an SA chip (Cytiva) was preconditioned with HBS-EP buffer (10 mM Hepes, 150 mM NaCl, 3 mM EDTA, 0.005% Tween-20) to stabilize the baseline and remove any loosely bound streptavidin. Before use, the buffer was filtered through a 0.2 μm polystyrene filter and degassed under vacuum for 10 min to eliminate air bubbles. Biotinylated HCMV UL141 was immobilized on the SA chip, maintaining biotinylation at 0.5 to 1.5 mol per mole of protein. Excess biotin was removed via gel filtration. UL141 was injected at 30 μl/min, achieving maximum immobilization (4000–6000 RU), followed by washing with running buffer. Residual unbound proteins were optionally removed with a 2 M NaCl pulse. To ensure optimal SPR signal detection, which depends on the analyte mass bound to the ligand, relatively high amounts of ligand were immobilized on the sensor chip to achieve a significant response signal upon binding of the small compound. […] Regeneration of the chip surface, when necessary, was performed using 5 mM NaOH. Control injections of zero concentrations and duplicate injections of selected concentrations were included to validate surface regeneration. […]

A549 cells = test: Cytotoxicity on A549 cells (data not shown); format: cell-based
VERO-E6 cells = test: Cytotoxicity on VERO-E6 cells (data not shown); format: cell-based
UL141 = conditions: cited from earlier work; for Kd: UL141 (ectodomain) in solution
HCMV UL141 [4] = molecular target: T2, HCMV UL141 (Human cytomegalovirus, UniProt Q6RJQ3); test: biochemical; format: binding
T2 construct: we expressed and purified the full-length recombinant UL141 (amino acids 30–300); made in house
T2 sequence (Q6RJQ3 whole entry, looked up): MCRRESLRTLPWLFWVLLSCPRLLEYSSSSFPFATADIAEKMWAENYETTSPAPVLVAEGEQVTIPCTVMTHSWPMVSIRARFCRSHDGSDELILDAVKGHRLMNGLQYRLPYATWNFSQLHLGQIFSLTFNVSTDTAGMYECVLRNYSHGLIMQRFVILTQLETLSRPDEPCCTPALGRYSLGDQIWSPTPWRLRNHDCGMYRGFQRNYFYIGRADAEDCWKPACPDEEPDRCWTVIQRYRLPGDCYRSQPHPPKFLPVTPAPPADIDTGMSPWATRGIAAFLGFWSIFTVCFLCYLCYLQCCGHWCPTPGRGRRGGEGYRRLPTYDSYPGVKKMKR
Description: as §1, §2

TRAIL-R2 (Homo sapiens) = TRAIL-R2 (Homo sapiens) (UniProt O14763); test: SPR; conditions: cited from earlier work
[5] = UL141 immobilized (ligand), substance in solution (analyte), 1:1 Langmuir model, 25 °C
[6] = 1:1 Langmuir model, listed as cmp 15
[7] = TRAIL-R2-Fc immobilized, ref ([19])
[8] = TRAIL-R2-Fc immobilized, UL141 in solution, ref ([19])
[9] = UL141-Fc immobilized, TRAIL-R2 in solution, ref ([17])
[10] = 1:1 Langmuir model, listed as cmp 20

Compound	cytotoxicity (in words) [2]	Kd (HCMV UL141 [3]; [5]) [µM]	Rmax (HCMV UL141 [3])	koff (HCMV UL141 [3]; 1:1 Langmuir model) [s⁻¹]	kon (HCMV UL141 [3]; 1:1 Langmuir model) [M⁻¹ s⁻¹]	concentration at which cytotoxicity with apoptotic properties begins (A549 cells) [ng/mL]	concentration at which cytotoxicity with apoptotic properties begins (VERO-E6 cells) [ng/mL]	also measured
UL141 ECD (from UniProt Q6RJQ3)								Kd [1]: 0.00596 µM
C[C@H](O)[C@H]1[C@@H](O)[C@@H](O)CN1Cc1ccc(I)cc1 [Compound 14, (2S,3R,4S)-2-((S)-1-hydroxyethyl)-1-(4-iodobenzyl)pyrrolidine-3,4-diol]	no cytotoxicity was detected	24	24	0.153	6370			Kd (HCMV UL141 [3]; binding to UL141, SPR): 24 µM; kon (HCMV UL141 [3]; 1:1 Langmuir model, listed as cmp 14): (0.63 ± 0.002) × 10^4 M^−1s^−1
CC(O)C1C(O)C(O)CN1Cc1ccccc1 (stereo not shown) [Compound 15]	no cytotoxicity was detected	200	27	0.117	586			Kd (HCMV UL141 [3]; binding to UL141, SPR): 199 µM; koff (HCMV UL141 [3]; [6]): (1.17 ± 0.004) × 10^−1 s^−1; kon (HCMV UL141 [3]; [6]): (0.06 ± 0.002) × 10^4 M^−1s^−1
CC(O)C1C(O)C(O)CN1Cc1ccc(I)cc1 (stereo not shown) [Compound 17]	no cytotoxicity was detected	20.3	20	0.0508	2500			koff (HCMV UL141 [3]; 1:1 Langmuir model, listed as cmp 17): (0.51 ± 0.001) × 10^−1 s^−1
CCCCCCCCCCCCN1C[C@H](O)[C@H](O)[C@@H]1CO [Compound 9]	unfavorable level of cytotoxicity					≥ 5000	≥ 5000	
CCCCCCCCCCCCCCO[C@@H]1O[C@H](CO)[C@H](O)[C@H](O)[C@H]1O [Compound 3]						≥ 5000	≥ 5000	
TRAIL-R2-Fc: TRAIL-R2 recombinantly prepared as an Fc-fusion protein								Kd (UL141; [7]): 0.00596 µM; koff (UL141; [8]): 7.21e-05 s⁻¹; kon (UL141; [8]): 12100 M⁻¹ s⁻¹
TRAIL-R2: recombinant human TRAIL death receptor 2 ectodomain (amino acids 58–184), positive control in SPR								Rmax (HCMV UL141 [4]; UL141 immobilized, substance as analyte): 872; Kd (HCMV UL141 [4]; full-length UL141 and TRAIL-R2, SPR, read-out: affinity (KD)): 0.00599 µM; Kd (UL141; [7]): 0.00596 µM; koff (UL141; [9]): 0.00564 s⁻¹; kon (UL141; [9]): 264000 M⁻¹ s⁻¹
CCCCCCCCCCCCCCO[C@@H]1O[C@H](CO)[C@@H](O)[C@H](O)[C@H]1O [Compound 1]						≥ 5000	≥ 5000	
CCCCCCCCCCCCCCO[C@H]1O[C@H](CO)[C@@H](O)[C@H](O)[C@@H]1O [Compound 5]	unfavorable level of cytotoxicity					≥ 5000	≥ 5000	
CC1C(O)C(O)CN1Cc1ccc(I)cc1 (stereo not shown) [Compound 20]	no cytotoxicity was detected	29.1	21	0.0879	3020			Kd (HCMV UL141 [3]; binding to UL141, SPR): 29 µM; koff (HCMV UL141 [3]; [10]): (0.88 ± 0.015) × 10^−1 s^−1; kon (HCMV UL141 [3]; [10]): (0.30 ± 0.007) × 10^4 M^−1s^−1
UL141-Fc (from UniProt Q6RJQ3)								Kd (TRAIL-R2 (Homo sapiens)): 0.0214 µM
